Molecular target: T1, IRAK4 (Homo sapiens, UniProt Q9NWZ3)
T1 sequence (Q9NWZ3 1-460): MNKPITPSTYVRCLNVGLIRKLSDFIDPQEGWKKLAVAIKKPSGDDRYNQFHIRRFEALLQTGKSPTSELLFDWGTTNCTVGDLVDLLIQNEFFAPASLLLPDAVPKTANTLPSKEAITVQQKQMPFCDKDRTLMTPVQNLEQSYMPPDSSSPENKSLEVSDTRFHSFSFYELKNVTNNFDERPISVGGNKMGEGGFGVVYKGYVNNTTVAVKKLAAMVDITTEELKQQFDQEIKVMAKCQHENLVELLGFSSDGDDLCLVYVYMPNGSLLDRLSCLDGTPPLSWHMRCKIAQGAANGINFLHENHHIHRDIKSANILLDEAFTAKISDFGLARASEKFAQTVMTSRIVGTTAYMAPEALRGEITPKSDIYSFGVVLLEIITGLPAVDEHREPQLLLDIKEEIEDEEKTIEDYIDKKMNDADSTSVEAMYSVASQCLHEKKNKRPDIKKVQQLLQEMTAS
Experiment: 2-hour 1 mM ATP IRAK4 Biochemical assay (as above, but with 100 pM IRAK4 and 1 mM ATP)
Conditions: IRAK4 MSD BIOCHEMICAL (1 mM ATP) IC50 (μM), 100 pM IRAK4, 2 hours
How it was run: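 MSD electrochemiluminescence read-out: biotinylated peptide product bound to streptavidin plates, probed with anti-P-Thr rabbit antibody and Sulfo-Tag goat anti-rabbit. Kinase reaction used 1 mM ATP and 100 pM IRAK4 over 2 hours before EDTA quench.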

| SMILES | IC50 [µM] |
| --- | --- |
| CCOc1cc(NC(=O)c2cccc(C(F)F)n2)cn2cc(C3CCCOC3)nc12 (single isomer, unassigned) [Example 285, 6-(difluoromethyl)-N-(8-ethoxy-2-(tetrahydro-2H-pyran-3-yl)imidazo[1,2-a]pyridin-6-yl)picolinamide] | 0.006 |
| COc1cccc(C(=O)Nc2cn3cc(C45COC(C)(C4)C5)nc3c(OC)n2)n1 [Example 448, 6-methoxy-N-(8-methoxy-2-(1-methyl-2-oxabicyclo[2.1.1]hexan-4-yl)imidazo[1,2-a]pyrazin-6-yl)picolinamide 2,2,2-trifluoroacetate] | 0.023 |
| COc1c(F)cccc1C(=O)Nc1cn2cc(C34CCC(C)(C3)OC4)nc2c(OC)n1 (stereo not drawn) [Example 466, 3-fluoro-2-methoxy-N-(8-methoxy-2-(1-methyl-2-oxabicyclo[2.2.1]heptan-4-yl)imidazo[1,2-a]pyrazin-6-yl)benzamide 2,2,2-trifluoroacetate] | 0.059 |
| COc1cc(NC(=O)c2cccc(C(F)F)n2)cn2cc(C3CCCOC3)nc12 (racemic) [Example 268, 6-(difluoromethyl)-N-(8-methoxy-2-(tetrahydro-2H-pyran-3-yl)imidazo[1,2-a]pyridin-6-yl)picolinamide] | 0.002 |
| CC(C)Oc1nc2nc(C34COC(C)(C3)C4)cn2cc1NC(=O)c1cccc(OC2CC2)n1 [Example 494, 6-cyclopropoxy-N-(7-isopropoxy-2-(1-methyl-2-oxabicyclo[2.1.1]hexan-4-yl)imidazo[1,2-a]pyrimidin-6-yl)picolinamide] | 0.006 |
| COc1nc(NC(=O)c2cccc3ccnn23)cn2cc(C34CCC(C)(C3)OC4)nc12 (stereo not drawn) [Example 470, N-(8-methoxy-2-(1-methyl-2-oxabicyclo[2.2.1]heptan-4-yl)imidazo[1,2-a]pyrazin-6-yl)pyrazolo[1,5-a]pyridine-7-carboxamide 2,2,2-trifluoroacetate] | 0.006 |
| CCOc1cc2nc(C3C4COCC43)cn2cc1NC(=O)c1csc(C(F)(F)F)n1 (stereo not drawn) [Example 377, N-(2-(3-oxabicyclo[3.1.0]hexan-6-yl)-7-ethoxyimidazo[1,2-a]pyridin-6-yl)-2-(trifluoromethyl)thiazole-4-carboxamide 2,2,2-trifluoroacetate] | 0.001 |

The remaining lines, values ahead:

| IC50 [µM] | SMILES |
| --- | --- |
| 0.118 | COc1nc(NC(=O)c2ccn(C)n2)cn2cc(C34COC(C)(C3)C4)nc12 [Example 441, N-(8-methoxy-2-(1-methyl-2-oxabicyclo[2.1.1]hexan-4-yl)imidazo[1,2-a]pyrazin-6-yl)-1-methyl-1H-pyrazole-3-carboxamide] |
| 0.021 | Cn1ccc(C(=O)Nc2cn3cc(C45COC(C)(C4)C5)nc3cc2OC(F)F)n1 [Example 397, N-(7-(difluoromethoxy)-2-(1-methyl-2-oxabicyclo[2.1.1]hexan-4-yl)imidazo[1,2-a]pyridin-6-yl)-1-methyl-1H-pyrazole-3-carboxamide 2,2,2-trifluoroacetate] |
| 0.073 | CC(C)Oc1c(NC(=O)c2cccnc2OC(F)F)cn2cc(C34COC(C)(C3)C4)nc2c1F [Example 323, 2-(difluoromethoxy)-N-(8-fluoro-7-isopropoxy-2-(1-methyl-2-oxabicyclo[2.1.1]hexan-4-yl)imidazo[1,2-a]pyridin-6-yl)nicotinamide] |
| 0.001 | Cc1cccc(C(=O)Nc2cn3cc(C45COC(C)(C4)C5)nc3nc2OC(C)C)c1F [Example 490, 2-fluoro-N-(7-isopropoxy-2-(1-methyl-2-oxabicyclo[2.1.1]hexan-4-yl)imidazo[1,2-a]pyrimidin-6-yl)-3-methylbenzamide] |
| 0.008 | COc1nc2nc(C34COC(C)(C3)C4)cn2cc1NC(=O)c1cccc(C(F)F)n1 [Example 567, 6-(difluoromethyl)-N-(7-methoxy-2-(1-methyl-2-oxabicyclo[2.1.1]hexan-4-yl)imidazo[1,2-a]pyrimidin-6-yl)picolinamide 2,2,2-trifluoroacetate] |
